{"source": "PubChem BioAssay (NCI)", "experiment_in_all_cases": "NCI anticancer screen, dose series, 48 h", "key": {"786-0 renal": {"system": "786-0 renal"}, "A498 renal": {"system": "A498 renal"}, "A549 NSCLC": {"system": "A549 NSCLC"}, "ACHN renal": {"system": "ACHN renal"}, "BT-549 breast": {"system": "BT-549 breast"}, "CAKI-1 renal": {"system": "CAKI-1 renal"}, "CCRF-CEM leukemia": {"system": "CCRF-CEM leukemia"}, "COLO 205 colon": {"system": "COLO 205 colon"}, "DU-145 prostate": {"system": "DU-145 prostate"}, "EKVX NSCLC": {"system": "EKVX NSCLC"}, "HCT-116 colon": {"system": "HCT-116 colon"}, "HCT-15 colon": {"system": "HCT-15 colon"}, "HOP-62 NSCLC": {"system": "HOP-62 NSCLC"}, "HOP-92 NSCLC": {"system": "HOP-92 NSCLC"}, "HS 578T breast": {"system": "HS 578T breast"}, "HT29 colon": {"system": "HT29 colon"}, "IGROV1 ovarian": {"system": "IGROV1 ovarian"}, "K-562 leukemia": {"system": "K-562 leukemia"}, "KM12 colon": {"system": "KM12 colon"}, "LOX IMVI melanoma": {"system": "LOX IMVI melanoma"}, "M14 melanoma": {"system": "M14 melanoma"}, "MALME-3M melanoma": {"system": "MALME-3M melanoma"}, "MCF7 breast": {"system": "MCF7 breast"}, "MDA-MB-231 breast": {"system": "MDA-MB-231 breast"}, "MDA-MB-435": {"system": "MDA-MB-435"}, "MOLT-4 leukemia": {"system": "MOLT-4 leukemia"}, "NCI-H226 lung": {"system": "NCI-H226 lung"}, "NCI-H23 lung": {"system": "NCI-H23 lung"}, "NCI-H460 lung": {"system": "NCI-H460 lung"}, "NCI-H522 lung": {"system": "NCI-H522 lung"}, "NCI/ADR-RES ovarian": {"system": "NCI/ADR-RES ovarian"}, "OVCAR-3 ovarian": {"system": "OVCAR-3 ovarian"}, "OVCAR-4 ovarian": {"system": "OVCAR-4 ovarian"}, "OVCAR-5 ovarian": {"system": "OVCAR-5 ovarian"}, "OVCAR-8 ovarian": {"system": "OVCAR-8 ovarian"}, "PC-3 prostate": {"system": "PC-3 prostate"}, "RPMI-8226 leukemia": {"system": "RPMI-8226 leukemia"}, "RXF 393 renal": {"system": "RXF 393 renal"}, "SF-268 CNS": {"system": "SF-268 CNS"}, "SF-295 CNS": {"system": "SF-295 CNS"}, "SF-539 CNS": {"system": "SF-539 CNS"}, "SK-MEL-2 melanoma": {"system": "SK-MEL-2 melanoma"}, "SK-MEL-28 melanoma": {"system": "SK-MEL-28 melanoma"}, "SK-MEL-5 melanoma": {"system": "SK-MEL-5 melanoma"}, "SK-OV-3 ovarian": {"system": "SK-OV-3 ovarian"}, "SN12C renal": {"system": "SN12C renal"}, "SNB-19 CNS": {"system": "SNB-19 CNS"}, "SNB-75 CNS": {"system": "SNB-75 CNS"}, "SR leukemia": {"system": "SR leukemia"}, "SW-620 colon": {"system": "SW-620 colon"}, "T-47D breast": {"system": "T-47D breast"}, "TK-10 renal": {"system": "TK-10 renal"}, "U251 CNS": {"system": "U251 CNS"}, "UACC-257 melanoma": {"system": "UACC-257 melanoma"}, "UACC-62 melanoma": {"system": "UACC-62 melanoma"}, "UO-31 renal": {"system": "UO-31 renal"}}, "note": "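Test compounds were applied to cells in 96-well plates for 48 hours at 5 doses. Definition used: TGI = concentration required for complete inhibition of growth.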", "data": [{"smiles": "Cn1cnc([N+](=O)[O-])c1[Se]c1ncnc2nc[nH]c12", "values": [{"measurement": "TGI", "setting": "786-0 renal", "value": 26.5, "unit": "µM"}, {"measurement": "TGI", "setting": "A498 renal", "value": 37, "unit": "µM"}, {"measurement": "TGI", "setting": "A549 NSCLC", "value": "> 100", "unit": "µM"}, {"measurement": "TGI", "setting": "ACHN renal", "value": 83.5, "unit": "µM"}, {"measurement": "TGI", "setting": "BT-549 breast", "value": 33.8, "unit": "µM"}, {"measurement": "TGI", "setting": "CAKI-1 renal", "value": 22.1, "unit": "µM"}, {"measurement": "TGI", "setting": "CCRF-CEM leukemia", "value": 34.1, "unit": "µM"}, {"measurement": "TGI", "setting": "COLO 205 colon", "value": 33.3, "unit": "µM"}, {"measurement": "TGI", "setting": "DU-145 prostate", "value": "> 100", "unit": "µM"}, {"measurement": "TGI", "setting": "EKVX NSCLC", "value": 47.4, "unit": "µM"}, {"measurement": "TGI", "setting": "HCT-116 colon", "value": 74.5, "unit": "µM"}, {"measurement": "TGI", "setting": "HCT-15 colon", "value": 81.6, "unit": "µM"}, {"measurement": "TGI", "setting": "HOP-62 NSCLC", "value": 50.3, "unit": "µM"}, {"measurement": "TGI", "setting": "HOP-92 NSCLC", "value": 27.9, "unit": "µM"}, {"measurement": "TGI", "setting": "HS 578T breast", "value": 39.9, "unit": "µM"}, {"measurement": "TGI", "setting": "HT29 colon", "value": 84.4, "unit": "µM"}, {"measurement": "TGI", "setting": "IGROV1 ovarian", "value": "> 100", "unit": "µM"}, {"measurement": "TGI", "setting": "K-562 leukemia", "value": 25.6, "unit": "µM"}, {"measurement": "TGI", "setting": "KM12 colon", "value": 54.1, "unit": "µM"}, {"measurement": "TGI", "setting": "LOX IMVI melanoma", "value": 10.8, "unit": "µM"}, {"measurement": "TGI", "setting": "M14 melanoma", "value": 24.8, "unit": "µM"}, {"measurement": "TGI", "setting": "MALME-3M melanoma", "value": 21.1, "unit": "µM"}, {"measurement": "TGI", "setting": "MCF7 breast", "value": 41.8, "unit": "µM"}, {"measurement": "TGI", "setting": "MDA-MB-231 breast", "value": 19.2, "unit": "µM"}, {"measurement": "TGI", "setting": "MDA-MB-435", "value": 19.5, "unit": "µM"}, {"measurement": "TGI", "setting": "MOLT-4 leukemia", "value": 22, "unit": "µM"}, {"measurement": "TGI", "setting": "NCI-H226 lung", "value": 22.6, "unit": "µM"}, {"measurement": "TGI", "setting": "NCI-H23 lung", "value": 61.1, "unit": "µM"}, {"measurement": "TGI", "setting": "NCI-H460 lung", "value": "> 100", "unit": "µM"}, {"measurement": "TGI", "setting": "NCI-H522 lung", "value": 14.7, "unit": "µM"}, {"measurement": "TGI", "setting": "NCI/ADR-RES ovarian", "value": "> 100", "unit": "µM"}, {"measurement": "TGI", "setting": "OVCAR-3 ovarian", "value": 29.5, "unit": "µM"}, {"measurement": "TGI", "setting": "OVCAR-4 ovarian", "value": 23.5, "unit": "µM"}, {"measurement": "TGI", "setting": "OVCAR-5 ovarian", "value": 36.2, "unit": "µM"}, {"measurement": "TGI", "setting": "OVCAR-8 ovarian", "value": 32.2, "unit": "µM"}, {"measurement": "TGI", "setting": "PC-3 prostate", "value": "> 100", "unit": "µM"}, {"measurement": "TGI", "setting": "RPMI-8226 leukemia", "value": 71.7, "unit": "µM"}, {"measurement": "TGI", "setting": "RXF 393 renal", "value": 38.7, "unit": "µM"}, {"measurement": "TGI", "setting": "SF-268 CNS", "value": 78.9, "unit": "µM"}, {"measurement": "TGI", "setting": "SF-295 CNS", "value": "> 100", "unit": "µM"}, {"measurement": "TGI", "setting": "SF-539 CNS", "value": 30.9, "unit": "µM"}, {"measurement": "TGI", "setting": "SK-MEL-2 melanoma", "value": 34.5, "unit": "µM"}, {"measurement": "TGI", "setting": "SK-MEL-28 melanoma", "value": 20.3, "unit": "µM"}, {"measurement": "TGI", "setting": "SK-MEL-5 melanoma", "value": 6.6, "unit": "µM"}, {"measurement": "TGI", "setting": "SK-OV-3 ovarian", "value": "> 100", "unit": "µM"}, {"measurement": "TGI", "setting": "SN12C renal", "value": 32.8, "unit": "µM"}, {"measurement": "TGI", "setting": "SNB-19 CNS", "value": 85.8, "unit": "µM"}, {"measurement": "TGI", "setting": "SNB-75 CNS", "value": "> 100", "unit": "µM"}, {"measurement": "TGI", "setting": "SR leukemia", "value": 17, "unit": "µM"}, {"measurement": "TGI", "setting": "SW-620 colon", "value": 26.8, "unit": "µM"}, {"measurement": "TGI", "setting": "T-47D breast", "value": 32.8, "unit": "µM"}, {"measurement": "TGI", "setting": "TK-10 renal", "value": "> 100", "unit": "µM"}, {"measurement": "TGI", "setting": "U251 CNS", "value": 44, "unit": "µM"}, {"measurement": "TGI", "setting": "UACC-257 melanoma", "value": 16.8, "unit": "µM"}, {"measurement": "TGI", "setting": "UACC-62 melanoma", "value": 10.1, "unit": "µM"}, {"measurement": "TGI", "setting": "UO-31 renal", "value": 60, "unit": "µM"}]}]}
